Tests used:
[1] = tested on: Panel NCI-60 (60 carcinoma cell lines); assay: Antiproliferative activity against human NCI60 cells at 10 uM after 48 hrs by sulforhodamine B assay relative to control; assay type: functional
KM12 = assay: Antiproliferative activity against human KM12 cells after 48 hrs by XTT assay; details: KM12, 48 h
[2] = tested on: Panel NCI-60 (60 carcinoma cell lines); assay: Antiproliferative activity against human NCI60 cells after 48 hrs by sulforhodamine B assay; assay type: functional, cell-based
COLO 205 = assay: Antiproliferative activity against human COLO205 cells after 48 hrs by XTT assay; details: COLO 205, 48 h

Compound	Activity [1]	IC50 (KM12)	Activity [2]	IC50 (COLO 205)
CC(=O)CC/C=C(\C)[C@H](O)[C@H](C)C(=O)O[C@H]1C[C@H](C)C=C2C=C[C@@]3(C)O[C@@H](O)CC(=O)[C@]3(C)[C@H]21	-34%	< 1.25 µM	Dose-dependent effect	< 1.25 µM
CC(/C=C/C=C(\C)[C@H](O)[C@H](C)C(=O)O[C@H]1C[C@H](C)C=C2C=C[C@@]3(C)O[C@@H](O)CC(=O)[C@]3(C)[C@H]21)=C\C=C\C(=O)O	-3%	< 1.25 µM	–	< 1.25 µM
C/C(=C\C=C\[C@H](C)CC(=O)O)[C@H](O)[C@H](C)C(=O)O[C@H]1C[C@@H](C)[C@@H](O)c2ccc(C)c(C)c21	89%	6.5 µM	–	12.5 µM

— ChEMBL document CHEMBL4190229, “Growth Inhibition of Colon Cancer and Melanoma Cells by Versiol Derivatives from a Paraconiothyrium Species” (J Nat Prod, 2017)
